According to a melting point compilation (Tetko et al.):

| Structure (SMILES) | melting point |
| --- | --- |
| C=CC(=O)Nc1ccc(OC)c(OC)c1 | 102 to 104 °C |
| O=C(O)c1sc2cccc([N+](=O)[O-])c2c1Cl | 219 to 221 °C |
| O=C(NC1CC1)c1ccc(Br)cc1 | 151 to 153 °C |
| NNC(=S)NCCc1ccccn1 | 124 to 126 °C |
| CC(C)(C)OC(=O)N1CCC(COS(C)(=O)=O)CC1 | 84 to 86 °C |
| N#CCc1ccc(C(N)=O)cc1 | 186 to 188 °C |
| CCO/C=C(\C#N)c1nc(C)cs1 | 70 to 72 °C |
| Cc1[nH]c2c(F)cccc2c(=O)c1C | 284 to 286 °C |
| O=C(O)C1CCn2ccnc2C1 (stereo not drawn) | 231 to 233 °C |
| O=Cc1ccccc1S(=O)(=O)N1CCOCC1 | 97 to 99 °C |
| N#Cc1ncn(CC(N)=O)n1 | 194 to 196 °C |
| O=C(O)C1(Cc2cccc(Cl)c2)CCCC1 | 60 to 62 °C |
| CN(C)c1nccc(Cl)n1 | 79 to 81 °C |
| COc1ccc(Br)c2[nH]c(C(=O)O)cc12 | 246 to 248 °C |
| OC1(Cc2ccc(F)cc2)CCNC1 (stereo not drawn) | 73 to 75 °C |
| Nc1ccnc(CO)c1 | 99 to 101 °C |
| C#CCOc1c(Cl)cc(C=O)cc1OC | 106 to 108 °C |
| CC1=CC(C)=NS(=O)(=O)N1 | 119 to 121 °C |
| O=C1CC2(CCSC2)C(=O)N1 (stereo not drawn) | 135 to 137 °C |
| NC(Cc1ccccc1)C(=O)Nc1ccccc1 (stereo not drawn) | 76 to 78 °C |

| Structure (SMILES) | melting point |
| --- | --- |
| O=C(O)C=CC(=O)c1ccc(F)c(F)c1 | 114 to 116 °C |
| c1ccc(-c2nc[nH]n2)cc1 | 117 to 119 °C |
| N#CC1(c2ccc3c(c2)OCO3)CC1 | 73 to 75 °C |
| NS(=O)(=O)c1c[nH]c(C(=O)O)c1 | 229 to 231 °C |
| COc1cc(C(=O)CBr)ccc1OC(F)F | 45 to 46 °C |
| CC(=O)N1CCC(CCC(=O)O)CC1 | 119 to 121 °C |
| CCOC(=O)c1oc(NC)nc1C | 103 to 105 °C |
| Nc1ccnc(N2CCCC2)n1 | 218 to 220 °C |
| CSc1nc(C)c(CC(=O)O)s1 | 146 to 148 °C |
| NC(=O)c1nnn(-c2ccccc2)c1N | 160 to 162 °C |
| CCOC(Cn1cc(C(=O)O)nn1)OCC | 138 to 140 °C |
| O=C1CCCc2c1[nH]c1ccc(Br)cc21 | 189 to 191 °C |
| COc1ccccc1OCCBr | 39 to 41 °C |
| CN(C)c1cc(C(F)(F)F)nc(Cl)n1 | 106 to 108 °C |
| CC(C)(C)c1ccc(C2CCCC(O)C2)cc1 (stereo not drawn) | 75 to 77 °C |
| NS(=O)(=O)C1CCS(=O)(=O)C1 (stereo not drawn) | 144 to 146 °C |
| COCCn1cnnc1S | 79 to 81 °C |
| Nc1ccc2c(c1)oc1ccccc12 | 89 to 91 °C |
| NC(CCc1ccccc1)=NO | 40 to 42 °C |
| COC(=O)N1CCc2cc(N)ccc21 | 149 to 151 °C |

Second part, the compound after the results:

| melting point | Structure (SMILES) |
| --- | --- |
| 179 to 181 °C | CNS(=O)(=O)c1cc(Br)cnc1N |
| 244 to 246 °C | Fc1ccc(-c2csc3ncnc(S)c23)cc1 |
| 111 to 113 °C | Cc1cc(Br)ccc1CC(=O)O |
| 74 to 76 °C | O=Cc1ccc(-c2ccc(Cl)c(C(F)(F)F)c2)o1 |
| 158 to 160 °C | N#Cc1ccc(S(=O)(=O)N2CCOCC2)cc1 |
| 162 to 164 °C | O=C(O)CS(=O)(=O)c1ccc([N+](=O)[O-])cc1 |
| 107 to 109 °C | CS(=O)(=O)c1ccccc1Br |
| 148 to 150 °C | CC(C)(C)OC(=O)NCCNS(=O)(=O)c1cccc(N)c1 |
| 189 to 191 °C | O=C(O)c1ccc(O)c(S(=O)(=O)Cl)c1 |
| 240 to 242 °C | Cc1cc(=O)c(C(=O)O)nn1-c1ccccc1[N+](=O)[O-] |
| 128 to 130 °C | Cc1cccn2cc(COc3ccc(F)cc3Cl)nc12 |
| 170 to 172 °C | CCc1cc2oc(=O)cc(CCl)c2cc1Cl |
| 230 to 232 °C | O=C(CCl)Nc1ccc(C(=O)O)cc1 |
| 182 to 184 °C | Oc1ccc(-c2nc3cc(C(F)(F)F)ccc3s2)cc1 |
| 86 to 88 °C | O=C(O)CCCN1C(=O)c2cccc3cccc(c23)C1=O |
| 168 to 170 °C | Cc1ccc(NC(=O)CC(N)=NO)cc1 |
| 111 to 113 °C | CCOC(=O)c1nn(-c2ccccc2)cc1/C=N/O |

| melting point | Structure (SMILES) |
| --- | --- |
| 229 to 231 °C | CCc1nc(-c2ccc(C(=O)O)cc2)n[nH]1 |
| 119 to 121 °C | Cc1ccc(-c2cc(CS(=O)(=O)Cl)on2)cc1 |
| 192 to 194 °C | O=C(O)c1cccc(S(=O)(=O)CC(F)(F)F)c1 |
| 207 to 209 °C | NS(=O)(=O)c1cc(F)cc(C(=O)O)c1Br |
| 140 to 142 °C | Cc1cccc(-c2nc(C)n[nH]2)c1 |
| 139 to 141 °C | CC(=O)NCc1ccc(C(=O)CCl)cc1 |
| 76 to 78 °C | ClCc1nnc(-c2cccc(Cl)c2)o1 |
| 35 to 39 °C | CC(C)CCc1ccc(S(=O)(=O)Cl)cc1 |
| 119 to 162 °C | CN(C)S(=O)(=O)c1ccc(N)cc1 |
| 163 to 165 °C | Nc1ccccc1NC(=O)Cc1cccs1 |
| 145 to 148 °C | NS(=O)(=O)c1ccc(CCNC(=O)CCl)cc1 |
| 152 to 154 °C | N#Cc1ccc(NC(=O)CCCl)cc1 |
| 113 to 115 °C | O=C1C=CC(=O)N1c1cccc(O)c1 |
| 79 to 81 °C | O=C1c2ccccc2C(=O)N1CCCc1nn[nH]n1 |
| 115 to 117 °C | CCn1c(CCl)nc2c(F)cccc21 |
| 89 to 91 °C | O=C(O)Cc1csc(-c2ccccc2)n1 |
